Measurements reported in US7341749B2, “Flavopereirine and alstonine combinations in the treatment and prevention of prostate cancer” (Natural Source International Ltd., priority 2004, dated 2008).

Tested on: LNCaP cells
Assay: Induction of apoptosis (PARP cleavage, Caspase-3 activity)
Format: cell-based, human
Conditions: inferred from the extract experiments

COC(=O)C1=CO[C@@H](C)[C@@H]2Cn3ccc4c5ccccc5nc-4c3C[C@H]12 [alstonine]
induction of the apoptosis pathway (mechanism of action of the active compound): relatively minor effect

CCc1ccc2c3[nH]c4ccccc4c3cc[n+]2c1 [flavopereirine]
induction of the apoptosis pathway (mechanism of action of the active compound): primary mechanism of action
